Entries after “also recorded” stand apart in the source; their conditions may differ.
Legend:
[1] = In vitro release profile, USP type 2 (paddle) dissolution; type: physicochemical; conditions: USP II Paddle, 0.1N HCl
Experimental: Compositions containing an aminoadamantane and levodopa/carbidopa are analyzed for release of the aminoadamantane and levodopa/carbidopa, according to the USP type 2 apparatus at a speed of 50 rpm. The dissolution media used include water, 0.1N HCl, or 0.1N HCl adjusted to pH 6.8 at 2 hours with phosphate buffer. The dissolution medium is equilibrated to 37±0.5° C.
The USP reference assay method for amantadine is used to measure the fraction of memantine released from the compositions prepared herein. Briefly, 0.6 mL sample (from the dissolution apparatus at a given time point) is placed into a 15 mL culture tube. 1.6 mL 0.1% Bromocresol Purple (in acetic acid) is added and vortexed for five seconds. The mixture is allowed to stand for approximately five minutes. 3 mL Chloroform is added and vortexed for five seconds. The solution is next centrifuged (speed […]) for five minutes. The top layer is removed with a disposable pipette. A sample is drawn into 1 cm flow cell and the absorbance is measured at 408 nm at 37° C. and compared against a standard curve prepared with known quantities of the same aminoadamantane. The quantity of determined is plotted against the dissolution time for the sample.
The USP reference assay method for levodopa is used to measure the fraction of levodopa released from the compositions prepared herein. Briefly, 0.5 ml samples from the dissolution apparatus removed at various times are assayed by liquid chromatography. The chromatograph is equipped with a 280 nm detector and a 3.9 mm×30 cm column containing packing Ll. The mobile phase is 0.09 N sodium phosphate, 1 mM sodium 1-decanesulfonate, pH 2.8. With the flow rate adjusted to about 2 mL per minute, the levodopa elutes in about 4 minutes and carbidopa elutes in about 11 minutes. From the saved dissolution samples, a 0.02 ml aliquot is injected into the chromatograph and the absorbance is measure and compared to standard to determine concentration & quantity. The quantity dissolved is then plotted against the dissolution time for the sample.
The cumulative fraction is the amount of drug substance released from the formulation matrix to the serum or gut environment (e.g., U.S. Pat. No. 4,839,177 or 5,326,570) or as measured with a USP II Paddle system using 0.1N HCl as the dissolution medium.

[2] = Estimated amantadine concentration in squirrel monkeys; type: in vivo, squirrel monkey; conditions: amantadine raised from 1 mg/kg to 45 mg/kg
Experimental: Briefly, squirrel monkeys (N=4) were lesioned with MPTP according to the protocol of Di Monte et al. (Mov. Disord. 15: 459-66 (2000)). […] Levodopa treatment at approximately 15 mg/kg (with 1.5 mg/kg carbidopa) mg/kg b.i.d. commenced a baseline UPDRS and dyskinesia measurement was established. […] We hypothesize that this translates into a potential 40% reduction in levodopa required to maintain UPDRS.

[3] = humans; cited from earlier work

## NC12CC3CC(CC(C3)C1)C2 [Amantadine, 1-amino-adamantane]
[1]; Time 0, amantadine and levodopa/carbidopa combination
  cum. fraction released: 0.00
[1]; Time 0.5
  cum. fraction released: 0.10
[1]; Time 1.0
  cum. fraction released: 0.20
[1]; Time 2.0
  cum. fraction released: 0.35
[1]; Time 4.0
  cum. fraction released: 0.60
[1]; Time 8.0
  cum. fraction released: 0.90
[1]; Time 12.0
  cum. fraction released: 0.98
[2]
  estimated concentration: ~3 μm

## CC12CC3CC(C)(C1)CC(N)(C3)C2 [Memantine, 1-amino-3,5-dimethyladamantane]
[3]
  Dose Dependent Toxicity: Dose escalation; also recorded: hallucination

## CC(N)C12CC3CC(CC(C3)C1)C2 (stereo not shown) [Rimantadine, 1-(1-aminoethyl)adamantane]
[3]
  Dose Dependent Toxicity: Insomnia

— patent US8895617B1, “Composition and method for treating neurological disease” (Adamas Pharmaceuticals, Inc., priority 2004, dated 2014)
